Assay [1] concerns IFN-β secretion by THP-1 cells. In words: Activation of IFN-β secretion by THP-1 cells (Human IFN-beta ELISA). The note with it: for EC50 / Activating effect on IFN-β secretion / STING agonist activity (in words): THP-1 cells; for EC50: 24 hours, IFN-β ELISA; for Activating effect on IFN-β secretion / STING agonist activity (in words): EC50 compared with 2′,3′-cGAMP and ADU-S100; for Highest concentration of IFN-β secreted by stimulated THP-1 cells: compared with ADU-S100. The format is cell-based. The procedure:
THP-1 cell, a human monocytic leukemia cell line, has the STING phenotype of HAQ type, i.e., R71H-G230A-R293Q. This assay used the Human IFN-beta DuoSet ELISA Kit from R & D (R & D, Cat #DY814-05) and the DuoSet ELISA Ancillary Reagent Kit 2 (R & D, Cat #DY008) to evaluate the activation of IFN-β secretion from THP-1 cells by representative compounds of the invention.
In thawing the THP-1 cells (ATCC #TIB-202), a cell freezing tube was quickly shaken in a water bath at 37° C. to thaw the cells within 1 min. The thawed cell suspension was taken and evenly mixed with an RPMI1640 medium (Hyclone, product #SH30027.01) containing 10% FBS (Life Technology, Cat #10099-141), centrifuged for 5 min at 1000 rpm, and the supernatant was discarded. The cell pellet was resuspended in 5 mL of the complete medium (RPMI 1640 medium containing 10% FBS), placed into a cell culture flask with a bottom area of 25 cm^2, and incubated in a cell incubator at 37° C., 5% CO2 and 95% humidity. When the cell confluence reached about 80%, the cells were passaged. All the cells in the culture flask were transferred to a 15 mL centrifuge tube, centrifuged for 5 min at 1000 rpm, and the supernatant was discarded. 5 mL of fresh complete medium was added to re-suspend the cell pellet, 1 mL of which was taken to place in a cell culture flask with a bottom area of 25 cm^2, supplemented with 4 mL of fresh complete medium for further incubation. When the cell confluence reached about 80% again, plating was conducted following the procedure of cell passage, retaining 1/5 cell suspension for further inculation and remaining 4/5 of the cell suspension in a 15 mL centrifuge tube. The cell suspension was centrifuged to discard the old culture medium, washed once using RPMI1640 culture medium (serum-free), and centrifuged to remove the supernatant. The cells were then re-suspended in RPMI1640 culture medium (serum-free). Cell viability was then detected by Trypan blue exclusion test and to be used for plating when the cell viability was confirmed to be more than 95%. A cell suspension with a density of 1.1×10^6 viable cells/mL was prepared using RPMI1640 culture medium (serum-free), and 180 μL of the cell suspension was added to a 96-well cell culture plate (NUNC Company, Cat #167008) so that the cell density in the plate was 2×10^5 viable cells/well.
A 10 mM stock solution of the compounds in DMSO was first serially diluted at 3.16-fold with DMSO (Sigma, Cat #D2650) to the 5th concentration, and the 6th concentration was set as DMSO control (compound-free). Then, the DMSO solutions containing different concentrations of the compounds were diluted at 10-fold with PBS so that the DMSO content in each compound solution of various concentrations was 10%. Finally, 20 μL of each of such solutions was added into corresponding cell culture plate to provide an initial compound concentration of 100 μM, with the dilution fold of adjacent concentrations being 3.16 and the DMSO content in the cell culture plate being 1%. The cell plate was placed in a cell incubator for further 24 hours.
ELISA detection was conducted referring to the instructions from R & D System, Cat #DY814-05.
ELISA plate coating: PBS (R & D System Cat #DY006) was used to dilute the capture antibody (mouse anti-human IFN-β capture antibody PART #844508) to provide the working concentration, and 100 μL capture antibody working solution was added to a 96-well ELISA plate which was then sealed and incubated overnight at room temperature. Upon discarding the capture antibody working solution, the cell plate was washed 3 times with a washing buffer (0.05% Tween-20 in PBS, pH 7.2-7.4, R & D System Cat #WA126) at 400 μL of the washing buffer per well, and the washing buffer was thoroughly removed after each washing, with the final washing to be completely removed of the wash buffer by inverting and claping the plate to a clean piece of paper. […]
(In general: ELISA stands for enzyme-linked immunosorbent assay.)

For assay [2], the system named is CT26 cells. In words: Anti-tumor activity in bilateral transplantation tumor model of CT26 syngeneic mouse. It counts as in vivo, BALB/c mice. The conditions noted are these: Day 0 and Day 4; for Growth inhibition rate, untreated left tumor: Day 13 post-dose, 50 μg/mouse intratumorally right side; for Inhibition of tumor growth, treated right-side tumor: Day 13 post-dosing, 50 μg/mouse (2.5 mg/kg) intratumorally right side. How it is done:
BALB/c mice of 6-8 weeks (purchased from Shanghai Ling Chang Biotech Co., Ltd.) were inoculated with 5×10^5 CT26 cells (supplied by Taicang Zexin Biotechnology Co., Ltd., ATCC #CRL-2638) subcutaneously on the left and right back dorsal, respectively, and the inoculation volume was 0.1 mL/side. When tumors grew to an average volume of 100 mm^3, they were randomized according to tumor size and mouse body weight and dosing was initiated. The day of the first dose was Day 0.
Two doses were administered on Day 0 and Day 4, with 50 μg of compound/mouse (i.e., 2.5 mg/kg) injected intratumorally right side, with the same volume of PBS (Hyclone, Cat #SH30258.01) as a control. The tumor on the left side was not treated. The control mice were sacrificed 13 days and the treated mice were sacrificed 21 days, after dosing. During the experiment, tumor volumes on the left and right sides and the body weights were measured 3 times per week, and the tumor volume was calculated as V=D×d×d/2 (where D represents length of tumor and d represents width of tumor).

Molecules are shown by their SMILES. Where a name gives a salt, the structure may show the parent alone.

The term EC50 denotes the concentration at which the effect is half-maximal. A higher EC50 goes with lower potency in that assay. In turn, `Nc1nc2c(ncn2[C@@H]2O[C@@H]3CO[P@@](=O)(S)OC4C(F)[C@H](n5cnc6c(N)nc(Cl)nc65)O[C@@H]4CO[P@@](=O)(S)OC2C3O)c(=O)[nH]1` (stereo partly drawn) [Example 10, (2′,3′)-cyclo-(Rp,Rp)-[2′-O-phosphorothioate-diester-guanosine]-[3′-O-phosphorothioate-diester-2-chloro-2′-deoxy-2′-fluoro-beta-adenosine] diammonium salt] yielded an EC50 in assay [1] (Homo sapiens, THP-1, 24 h) of 1 to 10 µM. For the same compound, in assay [1], the “Activating effect on IFN-β secretion / STING agonist activity (in words)” value is “significant STING agonist activity” and the “Highest concentration of IFN-β secreted by stimulated THP-1 cells” value was “higher than that of ADU-S100”. Besides, in assay [2], the “Growth inhibition rate, untreated left tumor” value (shortened to “Growth inhibition rate”) was 91.2%.

Take `Nc1nc2c(ncn2[C@@H]2O[C@@H]3CO[P@@](=O)(S)OC4C(F)[C@H](n5cnc6c(N)nc(Cl)nc65)O[C@@H]4CO[P@@](=O)(S)OC3C2O)c(=O)[nH]1` (stereo partly drawn) [Example 17, diammonium salt]: the EC50 in assay [1] (Homo sapiens, THP-1, 24 h) was in the range of 1 to 10 µM. Further, in assay [1], the “Activating effect on IFN-β secretion / STING agonist activity (in words)” value is “significant STING agonist activity” and the “Highest concentration of IFN-β secreted by stimulated THP-1 cells” value is listed as “higher than that of ADU-S100”. Also, in assay [2], the “Growth inhibition rate” value came to 67.4% and the “Inhibition of tumor growth, treated right-side tumor” value is listed as 99.5%.

`Nc1ncnc2c1ncn2[C@@H]1O[C@@H]2COP(=O)([S-])O[C@@H]3[C@H](O)[C@@H](COP([O-])(=S)O[C@H]2[C@H]1O)O[C@H]3n1cnc2c(N)ncnc21.[Na+].[Na+]` (stereo partly drawn) [ADU-S100, reference compound] gave an EC50 in assay [1] of 1 to 10 µM. In addition, in assay [2], the “Growth inhibition rate” value was found to be 64.2% and the “Inhibition of tumor growth, treated right-side tumor” value is on record as 99.1%.
